Source: PMC11465619 (ACS Omega, 2024)

What was measured:
[1] = biological target: T1, electric eel acetylcholinesterase (AChE, Type–VI-S, EC 3.1.1.7) (Electrophorus electricus, UniProt O42275); experiment: biochemical; conditions: for IC50: mean ± SEM of three parallel measurements
T1 construct: purchased Type–VI-S
Method: (§1) The electric eel acetylcholinesterase (AChE, Type–VI-S, EC 3.1.1.7, 425.84 U/mg) and horse reddish butyrylcholinesterase (BChE, EC 3.1.1.8, 11.4 U/mg) were used to determine the anticholinesterase activity. […] After incubation for 15 min at 25 °C, 20 μL 0.5 mM DTNB (5,50-dithiobis(2-nitrobenzoic acid)) and 20 μL acetylthiocholine iodide (0.71 mM) or butyryl-thiocholine chloride (0.2 mM) were added. Then, the absorbance was measured at 412 nm.
(§2) Lineweaver–Burk plots were drawn from the data obtained as a result of the experimental study.[24]

[2] = biological target: horse reddish butyrylcholinesterase (BChE, EC 3.1.1.8) (Equus caballus, UniProt P81908); experiment: biochemical; conditions: for IC50: mean ± SEM of three parallel measurements
Sequence of horse reddish butyrylcholinesterase (BChE, EC 3.1.1.8) (P81908 whole entry): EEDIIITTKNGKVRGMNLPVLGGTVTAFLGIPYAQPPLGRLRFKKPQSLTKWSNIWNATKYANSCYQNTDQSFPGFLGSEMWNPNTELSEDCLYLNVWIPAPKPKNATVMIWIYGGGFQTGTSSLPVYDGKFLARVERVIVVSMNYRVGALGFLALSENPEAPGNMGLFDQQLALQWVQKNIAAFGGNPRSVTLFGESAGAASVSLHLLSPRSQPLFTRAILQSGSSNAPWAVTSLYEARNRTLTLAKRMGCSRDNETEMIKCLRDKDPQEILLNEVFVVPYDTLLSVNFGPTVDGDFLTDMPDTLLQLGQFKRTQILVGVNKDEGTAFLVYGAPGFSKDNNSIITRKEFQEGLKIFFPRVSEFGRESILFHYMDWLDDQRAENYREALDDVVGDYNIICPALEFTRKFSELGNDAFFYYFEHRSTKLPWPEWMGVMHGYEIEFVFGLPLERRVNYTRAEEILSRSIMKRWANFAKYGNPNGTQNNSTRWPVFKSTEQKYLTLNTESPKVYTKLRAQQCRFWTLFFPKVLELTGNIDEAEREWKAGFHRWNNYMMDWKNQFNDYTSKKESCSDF
Method: as §1, §2

T1 sequence (O42275 24-633): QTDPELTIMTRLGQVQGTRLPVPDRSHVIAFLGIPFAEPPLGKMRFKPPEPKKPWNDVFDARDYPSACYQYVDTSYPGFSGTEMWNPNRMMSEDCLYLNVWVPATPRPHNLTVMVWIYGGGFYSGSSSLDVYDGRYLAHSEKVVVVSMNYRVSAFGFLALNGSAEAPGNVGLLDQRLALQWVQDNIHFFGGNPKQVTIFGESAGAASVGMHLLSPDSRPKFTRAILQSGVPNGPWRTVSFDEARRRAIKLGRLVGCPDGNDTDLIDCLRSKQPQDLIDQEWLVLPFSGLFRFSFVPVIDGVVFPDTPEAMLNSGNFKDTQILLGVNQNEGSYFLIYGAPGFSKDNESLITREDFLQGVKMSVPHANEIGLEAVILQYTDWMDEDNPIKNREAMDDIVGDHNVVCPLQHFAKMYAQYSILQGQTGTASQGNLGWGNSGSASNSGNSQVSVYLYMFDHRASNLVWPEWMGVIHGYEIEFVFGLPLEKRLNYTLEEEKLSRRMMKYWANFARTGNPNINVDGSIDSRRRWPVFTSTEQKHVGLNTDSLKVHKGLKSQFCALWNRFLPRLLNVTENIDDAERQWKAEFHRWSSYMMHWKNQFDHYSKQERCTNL

SMILES | IC50 [1] [µM] | IC50 [2] [µM] | type of inhibition of AChE (Lineweaver–Burk plots) [1] | AChE inhibitory activity relative to the standard galantamine ([1]; compared with galantamine) | Ki ([1]; competitive inhibition, read-out: inhibition constant for AChE (Lineweaver–Burk plots)) [µM] | type of inhibition of BChE (Lineweaver–Burk plots) [2] | Ki ([2]; competitive inhibition, read-out: inhibition constant for BChE (Lineweaver–Burk plots)) [µM]
O=S(=O)(N/N=C/c1ccccc1O)c1ccc(F)cc1 [Compound 1, (E)-4-Fluoro-N′-(2-hydroxybenzylidene)benzenesulfonohydrazide] | 117.5 ± 0.38 | 124.4 ± 0.28 |  |  |  |  | 
O=S(=O)(N/N=C/c1ccccc1O)c1ccccc1C(F)(F)F [Compound 2, (E)-N′-(2-Hydroxybenzylidene)-2-(trifluoromethyl)benzenesulfonohydrazide] | 91.77 ± 0.33 | 100.1 ± 0.12 |  |  |  |  | 
O=S(=O)(N/N=C/c1ccccc1O)c1cccc(C(F)(F)F)c1 [Compound 3, (E)-N′-(2-Hydroxybenzylidene)-3-(trifluoromethyl)benzenesulfonohydrazide] | 104.2 ± 0.56 | 119.8 ± 0.17 |  |  |  |  | 
O=S(=O)(N/N=C/c1ccccc1O)c1ccc(C(F)(F)F)cc1 [Compound 4, (E)-N′-(2-Hydroxybenzylidene)-4-(trifluoromethyl)benzenesulfonohydrazide] | 68.67 ± 0.43 | 75.34 ± 0.18 |  |  |  |  | 
O=S(=O)(N/N=C/c1ccccc1O)c1ccccc1OC(F)(F)F [Compound 5, (E)-N′-(2-Hydroxybenzylidene)-2-(trifluoromethoxy)benzenesulfonohydrazide] | 53.1 ± 0.58 | 69 ± 1.06 |  |  |  |  | 
O=S(=O)(N/N=C/c1ccccc1O)c1cccc(OC(F)(F)F)c1 [Compound 6, (E)-N′-(2-Hydroxybenzylidene)-3-(trifluoromethoxy)benzenesulfonohydrazide] | 80.3 ± 0.91 | 86.4 ± 0.14 |  |  |  |  | 
O=S(=O)(N/N=C/c1ccccc1O)c1ccc(OC(F)(F)F)cc1 [Compound 7, (E)-N′-(2-Hydroxybenzylidene)-4-(trifluoromethoxy)benzenesulfonohydrazide] | 29.1 ± 0.94 | 40.3 ± 0.66 | competitively | seven times lower | 28.2 ± 2.51 | competitively | 41.7 ± 3.18
